Read-outs that look alike come from different tables or passages of the source.
Tests used:
Assay type in all cases: cell-based
[1] = system: breast MDA-MB-435; assay: COMPARE screening (NCI human cancer cell line screen), cytotoxicity GI50
[2] = system: ovarian OVCAR-3; assay: as above
Procedure: (§1) Selected compounds were tested for antiproliferative activity in the National Cancer Institute's developmental therapeutics assay 60 cell line screen (NCI60). The cells were incubated with the tested compounds at 100, 10, 1, 0.1, and 0.01 μM concentrations for 48 h before treatment with sulforhodamine B dye. Optical densities were recorded, and their ratios relative to that of the control were plotted as percentage growth against the log 10 of the tested compound concentrations.

[3] = system: CNS SF-539; assay: as above
Procedure: as §1

[4] = system: lung HOP-62; assay: as above
Procedure: as §1

[5] = system: colon HCT-116; assay: as above
Procedure: as §1

[6] = system: prostate DU-145; assay: as above
Procedure: as §1

[7] = system: renal SN12C; assay: as above
Procedure: as §1

[8] = system: melanoma UACC-62; assay: as above
Procedure: as §1

[9] = system: all human cancer cell lines successfully tested; assay: NCI screen mean graph midpoint (MGM) for growth inhibition
Procedure: COMPARE screening. The compounds described herein were examined for antiproliferative activity against the human cancer cell lines in the National Cancer Institute screen (COMPARE screening), in which the activity of each compound was evaluated with approximately 55 different cancer cell lines of diverse tumor origins. […] Therefore, the MGM value represents an overall assessment of toxicity of the compound across numerous cell lines.
as §1
The cytotoxicities of the compounds to cultured cancer cells were measured in the National Cancer Institute's 60 cell line assay (a.k.a. NCI-60).

[10] = all human cancer cell lines successfully tested
[11] = breast MDA-MB-435, concentration corresponding to 50% growth inhibition, read-out: cytotoxicity (GI50 in μM) breast MDA-MB-435
[12] = ovarian OVCAR-3, concentration corresponding to 50% growth inhibition, read-out: cytotoxicity (GI50 in μM) ovarian OVCAR-3
[13] = CNS SF-539, concentration corresponding to 50% growth inhibition, read-out: cytotoxicity (GI50 in μM) CNS SF-539
[14] = lung HOP-62, concentration corresponding to 50% growth inhibition, read-out: cytotoxicity (GI50 in μM) lung HOP-62
[15] = colon HCT-116, concentration corresponding to 50% growth inhibition, read-out: cytotoxicity (GI50 in μM) colon HCT-116
[16] = prostate DU-145, concentration corresponding to 50% growth inhibition, read-out: cytotoxicity (GI50 in μM) prostate DU-145
[17] = renal SN12C, concentration corresponding to 50% growth inhibition, read-out: cytotoxicity (GI50 in μM) renal SN12C
[18] = melanoma UACC-62, concentration corresponding to 50% growth inhibition, read-out: cytotoxicity (GI50 in μM) melanoma UACC-62
[19] = Table 1, concentration corresponding to 50% growth inhibition, read-out: cytotoxicity (GI50) ovarian OVCAR-3
[20] = Table 1, average GI50 of all cell lines tested (approximately 55), test range 10^−8 to 10^−4 molar

Compound | GI50 [1] [µM] | GI50 [2] [µM] | GI50 [3] [µM] | GI50 [4] [µM] | GI50 [5] [µM] | GI50 [6] [µM] | GI50 [7] [µM] | GI50 [8] [µM] | MGM (mean GI50 across cell lines) [9, 10] [µM] | GI50 [1, 11] [µM] | GI50 [2, 12] [µM] | GI50 [3, 13] [µM] | GI50 [4, 14] [µM] | GI50 [5, 15] [µM] | GI50 [6, 16] [µM] | further results
O=C(O)C(F)(F)F.O=C1c2ccccc2-c2c1c1ccccc1c(=O)n2CCCNCCn1c2c(c3ccccc3c1=O)C(=O)c1ccccc1-2 [Compound 14a, Bis{(5,6-dihydro-5,11-diketo-11H-indeno[1,2-c]isoquinoline)}-(6-ethyl,6′-propyl)ammonium Trifluoroacetate] | 2.24 | 8.91 | 14.5 | 0.977 | 1.05 | 1.91 | 11 | 5.01 | 5.25 | – | – | – | – | – | – | –
COc1cc2c3c(n(CCNCCCNCCn4c5c(c6cc(OC)c(OC)cc6c4=O)C(=O)c4ccccc4-5)c(=O)c2cc1OC)-c1ccccc1C3=O.O=C(O)C(F)(F)F.O=C(O)C(F)(F)F [Compound 14k, Bis-1,3-{(5,6-dihydro-5,11-diketo-2,3-dimethoxy-11H-indeno[1,2-c]isoquinoline)-6-ethylamino}propane Bis{trifluoroacetate)] | – | – | – | – | – | – | – | – | 0.562 | 0.813 | 0.269 | 0.17 | 0.068 | 0.045 | 0.209 | GI50 [7, 17]: 0.028 µM; GI50 [8, 18]: 1.23 µM
CC(C)(C)OC(=O)N(CCCn1c2c(c3ccccc3c1=O)C(=O)c1ccccc1-2)CCN(CCCn1c2c(c3ccccc3c1=O)C(=O)c1ccccc1-2)C(=O)OC(C)(C)C [Compound 13b, Bis-1,2-{(5,6-dihydro-5,11-diketo-11H-indeno[1,2-c]isoquinoline)-(6-propyl-tert-BOCamino)}ethane] | – | – | – | – | – | – | – | – | 28.2 | > 50.1 | 13.2 | > 50.1 | 20 | 14.1 | > 50.1 | GI50 [7, 17]: 39.8 µM; GI50 [8, 18]: 45.7 µM
COc1cc2c3c(n(CCCNc4nccs4)c(=O)c2cc1OC)-c1cc2c(cc1C3=O)OCO2.Cl.Cl [Compound 5o, 6-(3-Thiazolylamino-1-propyl)-5,6-dihydro-2,3-dimethoxy-8,9-methylenedioxy-5,1-dioxo-11H-indeno[1,2-c]isoquinoline Dihydrochloride] | < 0.01 | – | < 0.01 | < 0.01 | < 0.01 | < 0.01 | < 0.01 | 0.014 | – | – | – | – | – | – | – | GI50 [2, 19]: 0.041 µM; MGM (mean graph midpoint for growth inhibition) [9, 20]: 0.112 ± 0.066 µM
CC(C)(C)OC(=O)NCCCCCCCCCCCCn1c2c(c3ccccc3c1=O)C(=O)c1ccccc1-2 [Compound 5ak, 6-(12′-tert-BOC-Aminododecyl)-5,6-dihydro-5,1-dioxo-11H-indeno[1,2-c]isoquinoline] | > 100 | > 100 | 20.4 | 32.4 | > 100 | 91.2 | > 100 | 27.5 | – | – | – | – | – | – | – | MGM (mean GI50 across cell lines) [9, 20]: 51.3 µM
O=C1c2ccccc2-c2c1c1ccccc1c(=O)n2CCNCCn1c2c(c3ccccc3c1=O)C(=O)c1ccccc1-2 [Compound 12a, Bis{(5,6-dihydro-5,11-diketo-11H-indeno[1,2-c]isoquinoline)-6-ethyl}amine] | > 25.1 | > 25.1 | > 25.1 | > 25.1 | > 25.1 | > 25.1 | > 25.1 | > 25.1 | 18.2 | – | – | – | – | – | – | –
CC(C)(C)OC(=O)NCCCCCCCCCCn1c2c(c3ccccc3c1=O)C(=O)c1ccccc1-2 [Compound 5ai, 6-(10′-tert-BOC-Aminodecyl)-5,6-dihydro-5,1-dioxo-11H-indeno[1,2-c]isoquinoline] | > 100 | > 100 | 42.7 | 28.8 | 60.3 | 97.7 | > 100 | 43.6 | – | – | – | – | – | – | – | MGM (mean GI50 across cell lines) [9, 20]: 52.5 µM
COc1ccc2c(c1)C(=O)c1c-2n(CCCn2ccnc2)c(=O)c2ccccc12 [Compound 5bs] | 0.646 | 1.66 | 0.178 | 0.056 | 0.11 | 0.204 | 0.676 | 0.071 | – | – | – | – | – | – | – | MGM (mean graph midpoint for growth inhibition) [9, 20]: 0.416 ± 0.134 µM
CC(C)(C)OC(=O)N(CCCN(CCn1c2c(c3ccccc3c1=O)C(=O)c1ccccc1-2)C(=O)OC(C)(C)C)CCn1c2c(c3ccccc3c1=O)C(=O)c1ccccc1-2 [Compound 13a, Bis-1,3-{(5,6-dihydro-5,11-diketo-11H-indeno[1,2-c]isoquinoline)-(6-ethyl-tert-BOCamino)}propane] | – | – | – | – | – | – | – | – | 33.9 | > 50.1 | 21.4 | > 50.1 | 22.4 | 22.9 | > 50.1 | GI50 [7, 17]: > 50.1 µM; GI50 [8, 18]: > 50.1 µM
COc1cc2c3c(n(CCCNCCCNCCCn4c5c(c6ccccc6c4=O)C(=O)c4ccccc4-5)c(=O)c2cc1OC)-c1cc2c(cc1C3=O)OCO2.O=C(O)C(F)(F)F.O=C(O)C(F)(F)F [Compound 17a, 1,3-{6-(3-Amino-1-propyl)-5,6-dihydro-2,3-dimethoxy-8,9-methylenedioxy-5,1-dioxo-11H-indeno[1,2-c]isoquinoline}-{5′,6′-Dihydro-6′-(3′-amino-1′-propyl)-5′,11′-dioxo-11′H-indeno[1,2-c]isoquinoline}propane Bis(trifluoroacetate)] | – | – | – | – | – | – | – | – | – | 0.155 | < 0.01 | < 0.01 | 0.191 | 0.022 | 0.01 | MGM (mean graph midpoint for growth inhibition) [9, 10]: 0.046 ± 0.010 µM
COc1cc2c3c(n(CCCn4ccnc4)c(=O)c2cc1OC)-c1cc2c(cc1C3=O)OCO2.Cl [Compound 5l, Hydrochloride] | 0.02 | – | 0.037 | < 0.01 | < 0.01 | < 0.01 | < 0.01 | < 0.01 | – | – | – | – | – | – | – | GI50 [2, 19]: 0.085 µM
Bis-1,2-{(5,6-dihydro-5,11-diketo-11H-indeno[1,2-c]isoquinoline)-6-ethylamino-ethylamino}ethane Tetra(trifluoroacetate) [Compound 14j] | 0.126 | 0.032 | 0.012 | 0.977 | 0.2 | 0.085 | – | – | – | – | – | – | – | – | – | MGM (mean graph midpoint for growth inhibition) [9, 10]: 0.262 ± 0.100 µM
COc1ccc2c(c1)C(=O)c1c-2n(CCCN)c(=O)c2ccccc12.Cl [Compound 5bg] | 0.059 | 0.028 | 0.038 | < 0.01 | < 0.01 | 0.014 | < 0.01 | – | – | – | – | – | – | – | – | MGM (mean graph midpoint for growth inhibition) [9, 20]: 0.048 ± 0.024 µM

Source: patent US9796753B2, “N-substituted indenoisoquinolines and syntheses thereof” (Purdue Research Foundation, priority 2005, dated 2017)
